Data: US6380181B1, “Synthetic catechol derivatives, method for production and use thereof” (priority 1996, dated 2002)
Like-named read-outs stand apart in the source and are kept apart here.

How the values were obtained:
Assay type in all cases: cell-based
[1] = system: Proteus vulgaris 718 (wild); settings: Proteus vul. 718
Description: (§1) In the indicator mutants, the synthesis of the respective siderophores, e.g. pyoverdin, pyochelin, enterobactin, aerobactin or yersiniabactin, or the biosynthesis of aromatic compounds, is blocked, or there is a lack of receptors for enterobactin, pyochelin or pyoverdin and for other important components for the bacterial transport of iron (e.g. the membrane proteins Cir, Fiu, FepA and TonB). Under conditions where there is a lack of iron, these mutants therefore cannot grow or can only grow to a very slight extent. In particular, the following indicator mutants were used: Pseudomonas aeruginosa PAO 6609, K 407, 690; E. coli AB 2847, Salmonella typhimurium enb-7, TA 270; Klebsiella pneumoniae KN 4401; Yersinia enterocolitica WAH; Proteus mirabilis 12 (wild); Proteus vulgaris 718 (wild) and Morganella morganii SBK3 (wild). […] The controls used were ferrioxamine E for the Pseudomonas strains, ferrioxamine G and enterobactin for the Salmonella strains, ferrichrome for the E. coli, Klebsiella and Y. enterocol. strains, and 3,4-dihydroxybenzylidene-2,4,6-trimethylaniline for Morganella morganii (see the above literature reference by R. Reissbrodt et al.).
(§2) The annotations + and (+) relate to non-specific promotion of growth.

[2] = system: Pseudomonas aeruginosa K 407; settings: Pseudomonas aeruginosa K407
Description: as §1, §2

[3] = system: Pseudomonas aeruginosa 690; further: test concentration or dose not given here
Description: as §1, §2

[4] = system: Klebsiella pneumoniae KN 4401; settings: Klebsiella KN 4401
Description: as §1, §2

[5] = system: Proteus mirabilis 12 (wild); settings: Proteus mir. 12
Description: as §1, §2

[6] = system: Salmonella typhimurium TA 2700; further: test concentration or dose not given here
Description: as §1, §2

[7] = system: Salmonella typhimurium enb-7; further: test concentration or dose not given here
Description: as §1, §2

[8] = system: Morganella morganii SBK3 (wild)
Description: as §1, §2

[9] = system: E. coli AB 2847; further: test concentration or dose not given here
Description: as §1, §2

[10] = system: Pseudomonas aeruginosa PAO 6609
Description: as §1, §2

Structure (SMILES) | Growth areas of siderophore indicator strains (diameter) [1] [mm] | Growth areas of siderophore indicator strains (diameter) [2] [mm] | Growth areas of siderophore indicator strains (diameter) [3] [mm] | Growth areas of siderophore indicator strains (diameter) [4] [mm] | Growth areas of siderophore indicator strains (diameter) [5] [mm] | Growth areas of siderophore indicator strains (diameter) [6] [mm] | Growth areas of siderophore indicator strains (diameter) [7] [mm] | Growth areas of siderophore indicator strains (diameter) ([8]; M. morg. SBK 3) [mm] | Growth areas of siderophore indicator strains (diameter) [9] [mm] | Growth areas of siderophore indicator strains (diameter) [10] [mm] | Growth areas of siderophore indicator strains (diameter) [8] [mm]
COC(=O)Oc1ccc(C=Nc2cccc(C(=O)O)c2)cc1OC(=O)OC [Substance 1, 3-[3,4-di(Methoxycarbonyloxy)-benzylideneamino]-benzoic Acid] | 35 | 16 | 23 | 0 | 26 | 0 | 35 | 35 | 0 | 20 | 
COC(=O)Oc1ccc(C=Nc2cc(C(=O)O)ccc2O)cc1OC(=O)OC [Substance 2, 3-[3 ,4-di(Methoxycarbonyloxy)-benzylideneamino]4-hydroxybenzoic Acid] | 25 | 18 | 17 | 35 | 16 | 0 | 30 | 20 | 0 | 17 | 
COC(=O)Oc1ccc(C=Nc2cc(N=Cc3ccc(OC(=O)OC)c(OC(=O)OC)c3)cc(C(=O)O)c2)cc1OC(=O)OC [Substance 4, 3,5-Bis-[3,4-di(methoxycarbonyloxy)-benzylideneamino]-benzoic Acid] | 24 | 18 | 18 | 33 | 23 | 0 | 34 | 27 | 18 | 17 | 
CC(=O)Oc1ccc(C=Nc2ccc(C(=O)O)cc2)cc1OC(C)=O [Substance 6, 4-(3,4-Diacetoxybenzylideneamino)-benzoic Acid] | 25 | 17 | 19 | 25 | 23 | 0 | 34 | 25 | 17 | 14 | 
CC(=O)Oc1ccc(N=Cc2cc(C(=O)O)cc(O)c2O)cc1OC(C)=O [Substance 7, 3-[(3,4-Diacetoxyphenylimino)-methyl]-4,5-dihydroxybenzoic Acid] | 22 | 0 | 0 | 23 | 20 | 0 | 0 | 22 | 0 | 0 | 
O=C(O)C(=NNC(=O)c1ccc(O)c(O)c1)c1ccccc1 [Substance 9, [(3,4-Dihydroxybenzoyl)-hydrazono]-phenylacetic Acid] |  |  | 10 | 27 | 9 | 0 | 0 |  | 0 |  | 
CC(=O)Oc1cccc(C(=O)Nc2ccccc2C(=O)O)c1OC(C)=O [Substance 16, 2-(2,3-Diacetoxy-benzoylamino)-benzoic Acid] |  | 20 | 20 |  |  | 10 | 25 |  | 24 | 20 | 
CC(=O)Oc1cccc(C(=O)Nc2ccc(C(=O)O)cc2)c1OC(C)=O [Substance 17, 4-(2,3-Diacetoxy-benzoylamino)benzoic Acid] |  |  |  |  |  |  | 0 | 12 | 26 | 0 | 
O=C(NCCC[C@H](NC(=O)c1cccc(O)c1O)C(=O)O)c1cccc(O)c1O [Substance 18, L-2,5-bis-(2,3-Dihydroxybenzoylamino)-pentanoic Acid] |  | 17 | 18 |  |  | 50 | 48 |  | 30 | 20 | 
C[C@H](NC(=O)c1cccc(O)c1O)C(=O)O [Substance 19, L-2-(2,3-Dihydroxybenzoylamino)-propionic Acid] |  | 10 | 0 |  |  | 17 | 29 |  | 11 |  | 
CC(=O)Oc1cccc(C(=O)N[C@@H](C)C(=O)O)c1OC(C)=O [Substance 20, L-2-(2,3-Diacetoxybenzoylamino)-propionic Acid] |  | 10 | 0 |  |  | 12 | 31 |  | 18 |  | 
O=C(NCC[C@H](NC(=O)c1cccc(O)c1O)C(=O)O)c1cccc(O)c1O [Substance 21, L-2,4-Bis-(2,3-dihydroxybenzoylamino)-butyric Acid] |  | 15 | 15 |  |  | 40 | 36 |  | 33 | 14 | 
O=C(NCCCCC(NC(=O)c1cccc(O)c1O)C(=O)NC[C@H](NC(=O)c1cccc(O)c1O)C(=O)O)c1cccc(O)c1O (stereo partly shown) [Substance 22] |  | 40 | 50 |  |  | 50 | 50 |  | 0 | 48 | 
CC(=O)Oc1cccc(C(=O)N[C@@H](CO)C(=O)O)c1OC(C)=O [Substance 23, L-2-[2,3-Diacetoxybenzoylamino)-3-hydroxypropionic Acid] |  |  | 14 |  |  | 20 | 27 |  | 22 |  | 
O=C(NCCC[C@@H](NC(=O)c1cccc(O)c1O)C(=O)O)c1cccc(O)c1O [Substance 24, D-2,5-Bis-(2,3-dihydroxybenzoylamino)-pentanoic Acid] |  | 20 | 20 |  |  | 40 | 50 |  | 40 | 20 | 
CC(=O)Oc1cccc(C(=O)NCCCC[C@H](NC(=O)c2cccc(OC(C)=O)c2OC(C)=O)C(=O)O)c1OC(C)=O [Substance 25, 1L-2,6-Bis-(2,3-diacetoxybenzoylamino)-hexanoic Acid] |  |  |  |  |  |  | 28 |  | 30 | 18 | 38
CC(=O)Oc1cccc(C(=O)N2COC[C@H]2C(=O)O)c1OC(C)=O [Substance 26, (S)-3-(2,3-diacetoxybenzoyl)-oxazolidine-4-carboxylic Acid] |  |  |  |  |  |  | 32 | 10 | 14 | 0 | 
